Measured values reported in patent publication US20070009886A1, “Carbohydrate-associated proteins” (Incyte Corporation, priority 2002, published 2007).

Key:
[1] = intranasal, relative to hydrocortisone; cited from earlier work
[2] = relative to progesterone; cited from earlier work
[3] = test system: SEQ ID NO:37 expression in PBMCs; assay: Microarray analysis of SEQ ID NO:37 expression in cytokine-treated versus untreated PBMCs; format: cell-based, human; conditions: 10 ng/ml recombinant IL-4, 2 hours, pooled PBMCs of 6 healthy donors
Procedure: Total RNA is isolated from tissue samples using the guanidinium thiocyanate method and poly(A)^+ RNA is purified using the oligo-(dT) cellulose method. Each poly(A)^+ RNA sample is reverse transcribed using MMLV reverse-transcriptase, 0.05 pg/μl oligo-(dT) primer (21mer), 1× first strand buffer, 0.03 units/μl RNase inhibitor, […], […], 500 μM dTTP, 40 μM dCTP, 40 μM dCTP-Cy3 (BDS) or dCTP-Cy5 (Amersham Biosciences). The reverse transcription reaction is performed in a […] containing 200 ng poly(A)^+ RNA with GEMBRIGHT kits (Incyte). Specific control poly(A)^+ RNAs are synthesized by in vitro transcription from non-coding yeast genomic DNA. […]
Sequences of the present invention are used to generate array elements. […] Array elements are amplified in thirty cycles of PCR from an initial quantity of 1-2 ng to a final quantity greater than 5 μg. […]
Reporter-labeled hybridization complexes are detected with a microscope equipped with an Innova 70 mixed gas 10 W laser (Coherent, Inc., Santa Clara Calif.) capable of generating spectral lines at 488 nm for excitation of Cy3 and at 632 nm for excitation of Cy5. […]
A grid is superimposed over the fluorescence signal image such that the signal from each spot is centered in each element of the grid. […]

C[C@H]1C[C@H]2[C@@H]3CCC4=CC(=O)C=C[C@]4(C)[C@@]3(Cl)[C@@H](O)C[C@]2(C)[C@@]1(O)C(=O)CO [beclomethasone]
anti-inflammatory and vasoconstrictive effects greater than those produced by hydrocortisone [1]: 5000 times

6α-methyl-17-hydroxyprogesterone [medroxyprogesterone]
pharmacological activity greater than progesterone [2]: about 15 times

B1: IL-4: a pleiotropic cytokine produced by activated T cells, mast cells, and basophils (protein, UniProt P05112 25-153, looked up)
Interleukin-4: HKCDITLQEIIKTLNSLTEQKTLCTELTVTDIFAASKNTTEKETFCRAATVLRQFYSHHEKDTRCLGATAQQFHRHKQLIRFLKRLDRNLWGLAGLNSCPVKEANQSTLENFLERLKTIMREKYSKCSS
expression of SEQ ID NO:37 increased in comparison to untreated PBMCs [3]: at least 2 fold
